System: convulsions in animal models of medically refractory epilepsy
Test: rodent models of medically refractory epilepsy (FIG. 12)
Format: in vivo
Details: multiple rodent models

`CCC1(c2ccccc2)CCNC1=O` (racemic) [3-ethyl-3-phenylpyrrolidin-2-one] was tested, and the “activity in preventing convulsions in animal models of medically refractory epilepsy” value was “active”.

— patent publication US12357610B2, “Aryl-substituted acetamide and pyrrolidin-2-one derivatives and their use for the treatment of seizures” (University of Houston System, priority 2017, dated 2025)
